The record followed here is US9067920B2, “Compounds useful for inhibiting Chk1” (Eli Lilly and Company, priority 2010, dated 2015).

Structures can show the parent of a compound that is named as a salt.

Assay [1] has as its target recombinant Chk2 protein kinase (Homo sapiens, UniProt O96017). Put plainly: Chk2 biochemical assay (CHK2/substrate peptide filter binding). As to conditions: 60 μM ATP, 1.4 nM Chk2 enzyme. As for the experimental part:
The effect of compounds on Chk2 biochemical activity can be determined using a CHK2/substrate peptide filter binding assay. In this assay, a synthetic peptide based on the amino acid sequence residues 206-225 of Cdc25C, is used as a phospho-acceptor substrate for recombinant Chk2 protein kinase. Using γ-^33P-ATP as the phospho-donor substrate, Chk2 transfers the radioactive γ-^33phosphate group to the synthetic peptide. The reaction is measured by capturing the peptide substrate on a cation exchange paper filter plate and scintillation counting of emitted beta particles.
The kinase reactions (40 μL reaction volumes) are performed in 96-well V-bottom polystyrene plates. Reactions are initiated with the addition of Chk2 enzyme. […]
Following Chk2 enzyme addition, the reactions are incubated at room temperature for 90 min, and then terminated with the addition of 140 μL of phosphoric acid. […] After sitting for 4 h at room temperature, the radioactivity in the plate is measured using a MicroBeta Trilux microplate scintillation counter (Perkin Elmer).
For IC50 determination, the percent inhibition for each concentration is calculated using the […] from controls run on each plate. […] Absolute IC50 values are calculated from the resulting curve. […]

Assay [2] has as its system HT-29 colon carcinoma cells. The assay is described as follows: ECtfs (two-fold sensitization) assay, gemcitabine potentiation, MTS. The assay is classed as cell-based. As for the experimental part: An inhibitor of Chk1 can potentiate the anti-proliferative activity of gemcitabine (or other cytotoxics) through abrogation of the intra-S phase checkpoint, resulting in sustained and increased DNA damage. The capacity for continued tumor cell proliferation after DNA damage can be analyzed by determining the ability of cells to replicate their DNA. […] In this assay, cells are treated with a dilution series of gemcitabine, and then 22 h later with the compound of Example 3, After an additional 44 h, the relative cell number is assessed by a MTS (3-(4,5-dimethylthiazol-2-yl)-5-(3-carboxymethoxyphenyl)-2-(4-sulfophenyl)-2H-tetrazolium) dye reduction assay. The ECtfs parameter is a measure of the concentration of a Chk1 inhibitor necessary to reduce by half the (1190 concentration of gemcitabine, measured in this assay in the absence of Chk1 inhibition. HT-29 cells (obtained from ATCC), are grown in RPMI 1640 plus 10% (v/v) heat inactivated FBS, The cells are plated at 2.5×10^3 per well, in a volume of 100 μL on 96-well tissue culture plates and incubated for 24 h. Gemcitabine dilutions are prepared at 6× concentrations in McCoy's 5A medium (modified) (1×) and added to wells at 20 μper well. Gemcitabine dilutions were set up with the highest final concentration of gemcitabine being 1.0 μM and dilutions made by three-fold steps to 0.5 nM.
Chk1 Inhibitor is prepared by dilutions in DMSO to 4000× final concentration, and then diluted 666-fold into McCoy's medium to generate 6× stocks. Chk1 inhibitor dilutions proceed by 2.5-fold steps starting at 25 nM down to 0.3 nM. Twenty-two hours 1.0 after gemcitabine addition, Chk1, inhibitor is added in a volume of 24 μL to wells containing 120 μL of medium plus gemcitabine. Each gemcitabine dilution receives a single Chk1 inhibitor dilution. Control wells received DMSO, gemcitabine, or Chk1 inhibitor alone. Forty-four hours after addition of Chk1 inhibitor, 30 μL of CellTiter 96® AQueous assay reagent, is added to each well and held at room temperature for 1 hour and 45 minutes. Absorbance is read on a SpectraMax 250 (Molecular Devices) spectrophotometer at 490 nm. Data from the SpectraMax spectrophotometer are analyzed with GraphPad Prism 4.0. First, an averaged no cell control absorbance is subtracted from all other values in the matrix of data from each plate. Next, duplicate data points are averaged. Data are normalized for each Chk1 inhibitor concentration, with 0% cell number set as corrected A490=0, and 100% cell number set as the 0 nM gemcitabine mean value. […] Gemcitabine concentrations are converted to log concentrations, and normalized cell number values are converted to percent inhibition (percent inhibition=1.00-normalized value). Transformed data are plotted, and a non-linear regression is run to estimate an IC50 value for gemcitabine at each Chk1 inhibitor concentration. The nonlinear regression is calculated allowing the slope to vary, and without constraints for the top or bottom of the dose-response curves. The ECtfs value is calculated as follows: GI50 values for gemcitabine for each Chk1 inhibitor concentration are determined, plotted, and the concentration of Chk1 inhibitor necessary to decrease the gemcitabine alone GI50 by two-fold is determined by interpolation.
Compounds within the scope of the invention are tested in this assay run substantially as above. For example, the compound of Example 3 is tested and found to have an ECtfs value of 1.0 nM (SE=0.1, n=3). […]

recombinant Chk2 protein kinase, sequence (O96017 whole entry, the tested form may be a part): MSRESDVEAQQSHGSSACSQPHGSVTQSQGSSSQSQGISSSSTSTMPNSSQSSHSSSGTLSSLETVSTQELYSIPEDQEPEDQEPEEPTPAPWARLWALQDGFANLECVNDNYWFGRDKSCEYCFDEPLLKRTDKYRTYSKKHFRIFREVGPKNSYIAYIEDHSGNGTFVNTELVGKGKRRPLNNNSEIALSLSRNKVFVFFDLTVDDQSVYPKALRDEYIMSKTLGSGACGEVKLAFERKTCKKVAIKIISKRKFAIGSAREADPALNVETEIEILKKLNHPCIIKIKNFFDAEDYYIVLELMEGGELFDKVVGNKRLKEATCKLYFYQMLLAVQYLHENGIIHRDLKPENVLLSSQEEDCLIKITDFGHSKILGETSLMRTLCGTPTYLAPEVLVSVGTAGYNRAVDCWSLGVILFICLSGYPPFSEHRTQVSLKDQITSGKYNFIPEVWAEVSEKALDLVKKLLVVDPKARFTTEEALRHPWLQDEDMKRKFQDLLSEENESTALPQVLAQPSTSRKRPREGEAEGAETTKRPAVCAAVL

As to `COc1nc(C)ccc1-c1cc(Nc2cncc(O[C@@H]3CCCNC3)n2)[nH]n1` [Example 1, (R)-[5-(2-Methoxy-6-methyl-pyridin-3-yl)-2H-pyrazol-3-yl]-[6-(piperidin-3-yloxy)-pyrazin-2-yl]-amine], the concentration for half-maximal inhibition (IC50) in assay [1] is 0.011 µM.
Turning to `COc1nc(C)ccc1-c1cc(Nc2cncc(O[C@@H]3CCCNC3)n2)[nH]n1` [Example 3, (R)-[5-(2-Methoxy-6-methyl-pyridin-3-yl)-2H-pyrazol-3-yl]-[6-(piperidin-3-yloxy)-pyrazin-2-yl]-amine acetic acid salt], the “decrease of the EC50 of gemcitabine” value in assay [2] (HT-29 cells, 25 nM of the compound) turned out to be 7 fold. The ECtfs value in assay [2] (HT-29 cells, concentration that decreases the gemcitabine GI50 two-fold) is recorded as 1.0 nM. In assay [2] (compound alone, 25 nM), the “effect on the proliferation of HT-29 cells” value is “little effect”.
